Test results reported in ChEMBL document CHEMBL4507297, “Data for DCP probe PF-04457845” (2021).

Columns and labels:
[1] = tested on: Receptor-type tyrosine-protein kinase FLT3 (Homo sapiens), P36888 [UNDEFINED MUTATION]; settings: Compound concentration 1000.0 nM
[2] = molecular target: Glycogen synthase kinase-3 beta (Homo sapiens) (UniProt P49841); settings: Compound concentration 1000.0 nM
[3] = molecular target: High affinity nerve growth factor receptor (Homo sapiens) (UniProt P04629); settings: Compound concentration 1000.0 nM
Sequence of High affinity nerve growth factor receptor (Homo sapiens) (P04629 33-796 limits assumed): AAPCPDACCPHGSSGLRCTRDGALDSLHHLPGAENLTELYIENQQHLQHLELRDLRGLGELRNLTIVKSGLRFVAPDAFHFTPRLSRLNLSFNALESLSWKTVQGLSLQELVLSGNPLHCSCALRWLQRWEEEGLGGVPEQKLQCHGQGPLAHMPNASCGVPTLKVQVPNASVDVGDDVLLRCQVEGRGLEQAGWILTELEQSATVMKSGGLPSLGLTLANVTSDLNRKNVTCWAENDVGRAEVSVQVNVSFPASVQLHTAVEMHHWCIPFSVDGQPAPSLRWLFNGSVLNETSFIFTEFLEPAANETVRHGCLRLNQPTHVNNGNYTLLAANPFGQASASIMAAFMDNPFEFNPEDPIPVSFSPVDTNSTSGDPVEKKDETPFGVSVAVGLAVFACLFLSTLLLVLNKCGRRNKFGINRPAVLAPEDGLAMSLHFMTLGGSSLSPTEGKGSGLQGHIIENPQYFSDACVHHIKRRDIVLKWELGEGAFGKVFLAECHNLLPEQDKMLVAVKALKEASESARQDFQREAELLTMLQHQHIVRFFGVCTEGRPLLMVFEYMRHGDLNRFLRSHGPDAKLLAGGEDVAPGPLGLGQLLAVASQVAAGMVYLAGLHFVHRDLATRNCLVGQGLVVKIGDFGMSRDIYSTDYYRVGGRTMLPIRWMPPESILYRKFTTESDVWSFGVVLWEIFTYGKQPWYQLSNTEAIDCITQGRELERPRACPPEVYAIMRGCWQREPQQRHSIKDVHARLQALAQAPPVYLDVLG

[4] = molecular target: Rhodopsin kinase GRK7 (Homo sapiens) (UniProt Q8WTQ7); settings: Compound concentration 1000.0 nM
[5] = molecular target: Myosin-IIIa (Homo sapiens) (UniProt Q8NEV4); settings: Compound concentration 1000.0 nM
[6] = tested on: Phosphatidylinositol 4,5-bisphosphate 3-kinase catalytic subunit alpha isoform (Homo sapiens), P42336 [H1047L]; settings: Compound concentration 1000.0 nM
[7] = molecular target: Mast/stem cell growth factor receptor Kit (Homo sapiens) (UniProt P10721); settings: Compound concentration 1000.0 nM
[8] = molecular target: Alpha-2C adrenergic receptor (Homo sapiens) (UniProt P18825); settings: Compound concentration 10.0 uM
[9] = molecular target: Mitogen-activated protein kinase 11 (Homo sapiens) (UniProt Q15759); settings: Compound concentration 1000.0 nM
[10] = tested on: Hepatocyte growth factor receptor (Homo sapiens), P08581 [Y1235D]; settings: Compound concentration 1000.0 nM
[11] = molecular target: Tyrosine-protein kinase Tec (Homo sapiens) (UniProt P42680); settings: Compound concentration 1000.0 nM
[12] = molecular target: Sodium-dependent serotonin transporter (Homo sapiens) (UniProt P31645); settings: Compound concentration 10.0 uM
[13] = molecular target: 5-hydroxytryptamine receptor 2B (Homo sapiens, UniProt P41595); settings: Compound concentration 10.0 uM
Sequence of 5-hydroxytryptamine receptor 2B (P41595 whole entry): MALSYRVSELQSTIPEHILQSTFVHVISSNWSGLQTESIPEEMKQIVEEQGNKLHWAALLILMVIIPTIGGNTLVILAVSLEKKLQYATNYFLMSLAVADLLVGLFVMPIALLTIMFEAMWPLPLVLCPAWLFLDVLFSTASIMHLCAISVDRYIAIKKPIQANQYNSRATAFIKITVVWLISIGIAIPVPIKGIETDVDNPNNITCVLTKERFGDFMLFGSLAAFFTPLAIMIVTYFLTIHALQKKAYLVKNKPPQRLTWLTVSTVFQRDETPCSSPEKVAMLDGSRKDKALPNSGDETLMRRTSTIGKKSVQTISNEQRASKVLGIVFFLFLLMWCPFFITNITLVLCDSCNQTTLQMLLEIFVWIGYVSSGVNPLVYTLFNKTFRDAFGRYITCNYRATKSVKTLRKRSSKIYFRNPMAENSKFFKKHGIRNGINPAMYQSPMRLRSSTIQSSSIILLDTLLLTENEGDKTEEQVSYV

[14] = molecular target: Activin receptor type-2B (Homo sapiens) (UniProt Q13705); settings: Compound concentration 1000.0 nM
[15] = molecular target: Serine/threonine-protein kinase 33 (Homo sapiens) (UniProt Q9BYT3); settings: Compound concentration 1000.0 nM
[16] = molecular target: Serine/threonine-protein kinase PAK 4 (Homo sapiens) (UniProt O96013); settings: Compound concentration 1000.0 nM
[17] = molecular target: G protein-coupled receptor kinase 3 (Homo sapiens) (UniProt P35626); settings: Compound concentration 1000.0 nM
[18] = molecular target: Mitogen-activated protein kinase 10 (Homo sapiens) (UniProt P53779); settings: Compound concentration 1000.0 nM
[19] = molecular target: Ribosomal protein S6 kinase alpha-6 (Homo sapiens) (UniProt Q9UK32); settings: Compound concentration 1000.0 nM
[20] = molecular target: Mitogen-activated protein kinase kinase kinase 3 (Homo sapiens) (UniProt Q99759); settings: Compound concentration 1000.0 nM
[21] = molecular target: Myosin light chain kinase, smooth muscle (Homo sapiens) (UniProt Q15746); settings: Compound concentration 1000.0 nM
[22] = molecular target: Tyrosine-protein kinase ABL1 (Homo sapiens) (UniProt P00519); settings: Compound concentration 1000.0 nM
[23] = molecular target: Serine/threonine-protein kinase Sgk1 (Homo sapiens) (UniProt O00141); settings: Compound concentration 1000.0 nM
Sequence of Serine/threonine-protein kinase Sgk1 (Homo sapiens) (O00141 whole entry): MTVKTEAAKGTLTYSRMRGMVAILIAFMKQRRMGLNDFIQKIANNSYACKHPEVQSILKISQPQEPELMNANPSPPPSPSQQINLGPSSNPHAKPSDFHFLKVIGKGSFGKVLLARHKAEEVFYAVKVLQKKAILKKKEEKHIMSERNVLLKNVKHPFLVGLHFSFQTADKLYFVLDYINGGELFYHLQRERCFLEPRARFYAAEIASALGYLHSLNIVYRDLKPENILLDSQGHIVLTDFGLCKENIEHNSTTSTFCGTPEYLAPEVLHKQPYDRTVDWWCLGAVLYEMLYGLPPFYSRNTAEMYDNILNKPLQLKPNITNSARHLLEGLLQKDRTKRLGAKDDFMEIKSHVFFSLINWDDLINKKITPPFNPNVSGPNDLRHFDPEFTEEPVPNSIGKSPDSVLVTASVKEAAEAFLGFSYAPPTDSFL

[24] = molecular target: Interleukin-1 receptor-associated kinase 1 (Homo sapiens) (UniProt P51617); settings: Compound concentration 1000.0 nM
Sequence of Interleukin-1 receptor-associated kinase 1 (Homo sapiens) (P51617 whole entry, looked up): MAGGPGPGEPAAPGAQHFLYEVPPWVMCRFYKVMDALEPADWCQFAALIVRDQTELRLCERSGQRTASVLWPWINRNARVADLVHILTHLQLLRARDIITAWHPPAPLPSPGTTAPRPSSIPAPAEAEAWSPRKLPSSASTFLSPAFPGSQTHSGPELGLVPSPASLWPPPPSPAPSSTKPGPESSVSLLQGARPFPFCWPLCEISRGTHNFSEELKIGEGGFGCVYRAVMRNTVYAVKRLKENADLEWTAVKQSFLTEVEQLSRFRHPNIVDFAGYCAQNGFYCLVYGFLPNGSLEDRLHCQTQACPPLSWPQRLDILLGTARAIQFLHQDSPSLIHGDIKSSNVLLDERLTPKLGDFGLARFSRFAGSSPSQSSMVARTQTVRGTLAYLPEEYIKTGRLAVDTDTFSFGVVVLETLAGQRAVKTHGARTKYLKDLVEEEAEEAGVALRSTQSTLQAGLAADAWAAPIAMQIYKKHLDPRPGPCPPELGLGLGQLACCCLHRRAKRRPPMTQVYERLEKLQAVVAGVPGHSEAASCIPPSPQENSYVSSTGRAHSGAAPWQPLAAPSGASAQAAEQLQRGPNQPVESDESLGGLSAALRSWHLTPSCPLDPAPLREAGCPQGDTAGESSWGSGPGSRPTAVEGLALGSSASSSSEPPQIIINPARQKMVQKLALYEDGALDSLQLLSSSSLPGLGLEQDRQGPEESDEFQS

[25] = molecular target: 3-phosphoinositide-dependent protein kinase 1 (Homo sapiens) (UniProt O15530); settings: Compound concentration 1000.0 nM
[26] = molecular target: Dual specificity protein kinase CLK2 (Homo sapiens) (UniProt P49760); settings: Compound concentration 1000.0 nM
[27] = molecular target: Phosphorylase b kinase gamma catalytic chain, skeletal muscle/heart isoform (Homo sapiens) (UniProt Q16816); settings: Compound concentration 1000.0 nM
[28] = molecular target: Inhibitor of nuclear factor kappa-B kinase subunit epsilon (Homo sapiens) (UniProt Q14164); settings: Compound concentration 1000.0 nM
[29] = molecular target: Mitotic checkpoint serine/threonine-protein kinase BUB1 (Homo sapiens) (UniProt O43683); settings: Compound concentration 1000.0 nM
[30] = molecular target: Macrophage-stimulating protein receptor (Homo sapiens) (UniProt Q04912); settings: Compound concentration 1000.0 nM
[31] = molecular target: MAP kinase-activated protein kinase 5 (Homo sapiens) (UniProt Q8IW41); settings: Compound concentration 1000.0 nM
[32] = molecular target: Serine/threonine-protein kinase PAK 2 (Homo sapiens) (UniProt Q13177); settings: Compound concentration 1000.0 nM
[33] = molecular target: Serine/threonine-protein kinase PAK 3 (Homo sapiens) (UniProt O75914); settings: Compound concentration 1000.0 nM
Sequence of Serine/threonine-protein kinase PAK 3 (Homo sapiens) (O75914 whole entry, looked up): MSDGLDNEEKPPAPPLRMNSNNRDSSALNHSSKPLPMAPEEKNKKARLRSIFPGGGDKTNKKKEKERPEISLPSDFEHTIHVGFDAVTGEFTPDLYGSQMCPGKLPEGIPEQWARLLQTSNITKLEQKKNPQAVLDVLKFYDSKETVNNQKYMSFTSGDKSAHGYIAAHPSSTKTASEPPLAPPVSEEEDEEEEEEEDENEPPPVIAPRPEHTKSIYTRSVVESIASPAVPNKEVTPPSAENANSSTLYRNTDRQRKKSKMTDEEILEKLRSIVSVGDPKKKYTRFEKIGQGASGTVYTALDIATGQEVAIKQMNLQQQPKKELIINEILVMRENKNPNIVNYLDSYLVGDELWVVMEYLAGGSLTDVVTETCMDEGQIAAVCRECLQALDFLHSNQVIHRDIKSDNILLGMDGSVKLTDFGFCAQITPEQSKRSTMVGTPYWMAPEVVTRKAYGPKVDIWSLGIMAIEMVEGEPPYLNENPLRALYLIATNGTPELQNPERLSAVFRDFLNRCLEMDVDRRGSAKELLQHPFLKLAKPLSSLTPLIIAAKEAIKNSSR

[34] = molecular target: Ephrin type-B receptor 2 (Homo sapiens) (UniProt P29323); settings: Compound concentration 1000.0 nM
[35] = molecular target: Epithelial discoidin domain-containing receptor 1 (Homo sapiens) (UniProt Q08345); settings: Compound concentration 1000.0 nM
[36] = molecular target: Mitogen-activated protein kinase 15 (Homo sapiens) (UniProt Q8TD08); settings: Compound concentration 1000.0 nM
[37] = molecular target: 1-phosphatidylinositol 3-phosphate 5-kinase (Homo sapiens) (UniProt Q9Y2I7); settings: Compound concentration 1000.0 nM
Sequence of 1-phosphatidylinositol 3-phosphate 5-kinase (Homo sapiens) (Q9Y2I7 whole entry): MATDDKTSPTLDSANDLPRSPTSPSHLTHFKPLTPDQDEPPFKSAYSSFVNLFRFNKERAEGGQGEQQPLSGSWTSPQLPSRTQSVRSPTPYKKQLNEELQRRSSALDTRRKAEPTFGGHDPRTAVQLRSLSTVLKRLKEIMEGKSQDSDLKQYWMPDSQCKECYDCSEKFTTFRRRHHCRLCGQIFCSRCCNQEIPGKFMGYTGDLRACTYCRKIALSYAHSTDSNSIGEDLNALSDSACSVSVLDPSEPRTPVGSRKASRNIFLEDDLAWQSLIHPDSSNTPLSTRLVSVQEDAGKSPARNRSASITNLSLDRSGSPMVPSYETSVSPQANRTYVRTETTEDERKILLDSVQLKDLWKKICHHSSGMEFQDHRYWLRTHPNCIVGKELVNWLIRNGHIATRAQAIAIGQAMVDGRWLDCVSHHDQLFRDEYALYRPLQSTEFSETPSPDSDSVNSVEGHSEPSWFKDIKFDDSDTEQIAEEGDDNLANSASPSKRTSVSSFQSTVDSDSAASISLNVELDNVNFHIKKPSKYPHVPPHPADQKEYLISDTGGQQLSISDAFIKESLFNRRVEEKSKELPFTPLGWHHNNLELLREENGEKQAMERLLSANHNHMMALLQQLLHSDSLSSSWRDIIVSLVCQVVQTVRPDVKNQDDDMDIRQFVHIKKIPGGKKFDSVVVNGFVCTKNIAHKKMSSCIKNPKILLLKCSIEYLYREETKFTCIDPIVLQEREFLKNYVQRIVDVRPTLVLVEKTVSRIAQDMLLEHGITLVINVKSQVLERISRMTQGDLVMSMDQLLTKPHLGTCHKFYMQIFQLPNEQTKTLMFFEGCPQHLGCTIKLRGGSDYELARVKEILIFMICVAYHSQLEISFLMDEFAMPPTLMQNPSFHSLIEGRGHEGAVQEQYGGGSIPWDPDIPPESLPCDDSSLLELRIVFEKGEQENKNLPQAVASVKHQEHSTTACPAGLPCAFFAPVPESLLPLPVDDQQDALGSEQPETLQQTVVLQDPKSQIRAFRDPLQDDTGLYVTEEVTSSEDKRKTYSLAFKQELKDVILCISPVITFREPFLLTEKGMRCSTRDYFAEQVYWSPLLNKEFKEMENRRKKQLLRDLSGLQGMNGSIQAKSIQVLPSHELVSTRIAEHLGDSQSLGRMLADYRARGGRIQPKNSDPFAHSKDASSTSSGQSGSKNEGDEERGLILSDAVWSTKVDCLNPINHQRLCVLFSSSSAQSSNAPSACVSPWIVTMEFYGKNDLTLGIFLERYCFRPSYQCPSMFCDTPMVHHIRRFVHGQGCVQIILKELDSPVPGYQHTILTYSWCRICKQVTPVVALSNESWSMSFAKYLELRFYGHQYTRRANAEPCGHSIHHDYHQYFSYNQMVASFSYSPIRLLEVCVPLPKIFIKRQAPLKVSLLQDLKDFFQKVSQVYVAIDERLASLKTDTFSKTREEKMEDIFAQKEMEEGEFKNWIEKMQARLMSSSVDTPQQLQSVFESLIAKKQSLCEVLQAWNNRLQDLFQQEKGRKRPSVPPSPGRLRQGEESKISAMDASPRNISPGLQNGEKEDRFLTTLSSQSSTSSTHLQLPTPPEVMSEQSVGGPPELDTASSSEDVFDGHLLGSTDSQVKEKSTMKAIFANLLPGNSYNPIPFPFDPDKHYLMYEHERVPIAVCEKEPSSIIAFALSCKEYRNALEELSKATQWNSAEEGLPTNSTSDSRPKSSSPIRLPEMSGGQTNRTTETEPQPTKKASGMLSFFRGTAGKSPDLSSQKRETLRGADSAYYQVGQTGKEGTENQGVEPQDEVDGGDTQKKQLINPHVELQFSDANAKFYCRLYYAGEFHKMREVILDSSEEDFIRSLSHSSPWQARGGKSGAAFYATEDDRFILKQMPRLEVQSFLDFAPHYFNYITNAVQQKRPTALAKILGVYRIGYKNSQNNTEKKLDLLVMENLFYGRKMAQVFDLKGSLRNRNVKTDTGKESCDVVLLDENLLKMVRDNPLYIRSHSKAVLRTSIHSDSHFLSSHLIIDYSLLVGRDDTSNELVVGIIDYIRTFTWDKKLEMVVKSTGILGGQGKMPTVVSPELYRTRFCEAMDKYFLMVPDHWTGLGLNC

[38] = molecular target: Macrophage colony-stimulating factor 1 receptor (Homo sapiens) (UniProt P07333); settings: Compound concentration 1000.0 nM
[39] = molecular target: Ribosomal protein S6 kinase alpha-3 (Homo sapiens) (UniProt P51812); settings: Compound concentration 1000.0 nM
[40] = molecular target: Serine/threonine-protein kinase 24 (Homo sapiens) (UniProt Q9Y6E0); settings: Compound concentration 1000.0 nM
[41] = molecular target: Testis-specific serine/threonine-protein kinase 1 (Homo sapiens) (UniProt Q9BXA7); settings: Compound concentration 1000.0 nM
[42] = molecular target: Serine/threonine-protein kinase MARK2 (Homo sapiens) (UniProt Q7KZI7); settings: Compound concentration 1000.0 nM
[43] = tested on: ALK tyrosine kinase receptor (Homo sapiens), Q9UM73 [L1196M]; settings: Compound concentration 1000.0 nM
[44] = molecular target: Ephrin type-A receptor 2 (Homo sapiens) (UniProt P29317); settings: Compound concentration 1000.0 nM
[45] = molecular target: Mitogen-activated protein kinase kinase kinase kinase 2 (Homo sapiens) (UniProt Q12851); settings: Compound concentration 1000.0 nM

## O=C(Nc1cccnn1)N1CC(C/C=C/c2cncc(Oc3ccc(C(F)(F)F)cn3)n2)C1
[1]
  residual activity: 68%
[2]
  residual activity: 77%
[3]
  residual activity: 82%
[4]
  residual activity: 85%
[5]
  residual activity: 100%
[6]
  residual activity: 100%
[7]
  residual activity: 78%
[8]
  inhibition: 0.34%
[9]
  residual activity: 100%
[10]
  residual activity: 100%
[11]
  residual activity: 100%
[12]
  inhibition: 32.7%
[13]
  inhibition: 2.28%
[14]
  residual activity: 98%
[15]
  residual activity: 100%
[16]
  residual activity: 96%
[17]
  residual activity: 100%
[18]
  residual activity: 77%
[19]
  residual activity: 89%
[20]
  residual activity: 79%
[21]
  residual activity: 73%
[22]
  residual activity: 87%
[23]
  residual activity: 85%
[24]
  residual activity: 66%
[25]
  residual activity: 97%
[26]
  residual activity: 100%
[27]
  residual activity: 100%
[28]
  residual activity: 77%
[29]
  residual activity: 1.4%
[30]
  residual activity: 100%
[31]
  residual activity: 76%
[32]
  residual activity: 95%
[33]
  residual activity: 100%
[34]
  residual activity: 100%
[35]
  residual activity: 99%
[36]
  residual activity: 100%
[37]
  residual activity: 100%
[38]
  residual activity: 87%
[39]
  residual activity: 89%
[40]
  residual activity: 98%
[41]
  residual activity: 100%
[42]
  residual activity: 80%
[43]
  residual activity: 82%
[44]
  residual activity: 100%
[45]
  residual activity: 80%

## O=C(Nc1cccnn1)N1CCC(=Cc2cccc(Oc3ccc(C(F)(F)F)cn3)c2)CC1
[1]
  residual activity: 94%
[2]
  residual activity: 100%
[3]
  residual activity: 100%
[4]
  residual activity: 100%
[5]
  residual activity: 100%
[6]
  residual activity: 100%
[7]
  residual activity: 100%
[8]
  inhibition: 79.3%
[9]
  residual activity: 83%
[10]
  residual activity: 100%
[11]
  residual activity: 100%
[12]
  inhibition: 20.2%
[13]
  inhibition: 55.7%
[14]
  residual activity: 98%
[15]
  residual activity: 100%
[16]
  residual activity: 77%
[17]
  residual activity: 100%
[18]
  residual activity: 100%
[19]
  residual activity: 100%
[20]
  residual activity: 100%
[21]
  residual activity: 100%
[22]
  residual activity: 68%
[23]
  residual activity: 100%
[24]
  residual activity: 100%
[25]
  residual activity: 85%
[26]
  residual activity: 66%
[27]
  residual activity: 100%
[28]
  residual activity: 100%
[29]
  residual activity: 100%
[30]
  residual activity: 92%
[31]
  residual activity: 100%
[32]
  residual activity: 83%
[33]
  residual activity: 73%
[34]
  residual activity: 100%
[35]
  residual activity: 79%
[36]
  residual activity: 83%
[37]
  residual activity: 100%
[38]
  residual activity: 100%
[39]
  residual activity: 100%
[40]
  residual activity: 100%
[41]
  residual activity: 82%
[42]
  residual activity: 100%
[43]
  residual activity: 100%
[44]
  residual activity: 81%
[45]
  residual activity: 100%
